Experimental data: ChEMBL document CHEMBL1201862, “PubChem BioAssay data set” (2004)
Each block holds one molecule with its values, some of them ahead of it. Active and inactive are the calls of the source.

Tests used:
[1] = target: T1, Dual specificity protein phosphatase 6 (Rattus norvegicus, UniProt Q64346); experiment: MKP-3 phosphatase inhibitors, primary screen, biochemical, rat enzyme, in vitro (AID 425)
T1 sequence (Q64346 whole entry): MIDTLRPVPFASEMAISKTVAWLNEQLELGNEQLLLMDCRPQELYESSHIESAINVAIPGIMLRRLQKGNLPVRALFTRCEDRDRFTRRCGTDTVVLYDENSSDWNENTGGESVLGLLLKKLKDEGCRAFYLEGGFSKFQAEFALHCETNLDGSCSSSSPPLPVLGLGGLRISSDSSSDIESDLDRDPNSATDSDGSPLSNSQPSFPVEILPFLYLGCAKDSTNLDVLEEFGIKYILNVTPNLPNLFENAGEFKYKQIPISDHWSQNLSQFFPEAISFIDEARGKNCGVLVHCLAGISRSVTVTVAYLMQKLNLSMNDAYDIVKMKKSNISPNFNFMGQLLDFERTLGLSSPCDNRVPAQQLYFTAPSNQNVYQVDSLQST

[2] = target: T2, Sentrin-specific protease 8 (Homo sapiens, UniProt Q96LD8); type: functional;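 also: luminescence read-out of SENP8 inhibition, dose-response confirmation following an ultra-high-throughput screen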
T2 sequence (Q96LD8 whole entry): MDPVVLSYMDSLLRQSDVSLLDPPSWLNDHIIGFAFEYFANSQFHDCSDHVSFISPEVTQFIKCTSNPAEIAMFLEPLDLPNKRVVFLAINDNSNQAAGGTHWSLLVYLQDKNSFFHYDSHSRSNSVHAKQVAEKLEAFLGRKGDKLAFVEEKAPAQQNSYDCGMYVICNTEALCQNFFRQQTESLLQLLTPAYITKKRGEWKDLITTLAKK

[3] = target: T3, Tyrosyl-DNA phosphodiesterase 2 (Homo sapiens, UniProt O95551); experiment: human TDP2 enzyme inhibitors, dose response, biochemical, epi absorbance, IC50 (AID 743297)
T3 sequence (O95551 whole entry): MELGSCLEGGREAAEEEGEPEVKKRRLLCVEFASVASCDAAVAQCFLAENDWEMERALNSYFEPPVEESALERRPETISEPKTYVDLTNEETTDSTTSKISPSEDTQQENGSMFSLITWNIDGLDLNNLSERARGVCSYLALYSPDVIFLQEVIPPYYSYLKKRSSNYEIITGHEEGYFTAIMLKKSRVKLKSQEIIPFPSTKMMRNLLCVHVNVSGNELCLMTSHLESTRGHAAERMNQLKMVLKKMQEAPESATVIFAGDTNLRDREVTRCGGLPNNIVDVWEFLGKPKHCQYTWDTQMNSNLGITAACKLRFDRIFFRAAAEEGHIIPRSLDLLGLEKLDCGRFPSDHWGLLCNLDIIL

[4] = target: Dual specificity mitogen-activated protein kinase kinase 1 (Homo sapiens, UniProt Q02750); experiment: Navigating the Kinome. Panel member name: MAP2K1; type: functional
Dual specificity mitogen-activated protein kinase kinase 1, sequence (Q02750 whole entry, the tested form may be a part): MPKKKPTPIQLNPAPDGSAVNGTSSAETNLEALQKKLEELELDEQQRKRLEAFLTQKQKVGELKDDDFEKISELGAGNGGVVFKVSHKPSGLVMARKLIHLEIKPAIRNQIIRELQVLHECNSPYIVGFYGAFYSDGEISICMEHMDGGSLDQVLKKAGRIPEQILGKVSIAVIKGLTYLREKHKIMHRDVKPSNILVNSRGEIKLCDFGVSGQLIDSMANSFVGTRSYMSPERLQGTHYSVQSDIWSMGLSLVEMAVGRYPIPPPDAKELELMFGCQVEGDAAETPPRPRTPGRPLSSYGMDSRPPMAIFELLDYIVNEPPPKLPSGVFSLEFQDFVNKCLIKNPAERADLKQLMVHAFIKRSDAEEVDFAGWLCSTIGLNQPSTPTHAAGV

LIM domain kinase 1 = LIM domain kinase 1 (Homo sapiens, UniProt P53667); experiment: Navigating the Kinome. Panel member name: LIMK1; type: functional
[5] = target: Platelet-derived growth factor receptor beta (Homo sapiens, UniProt P09619); type: functional;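 also: value comes from a kinome panel, with PDGFRB tested as one panel member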
[6] = target: cAMP-dependent protein kinase catalytic subunit alpha (Homo sapiens, UniProt P17612); type: functional
[7] = target: Serine/threonine-protein kinase PLK3 (Homo sapiens, UniProt Q9H4B4); type: functional
[8] = target: RAC-gamma serine/threonine-protein kinase (Homo sapiens, UniProt Q9Y243); type: functional
[9] = target: Serine/threonine-protein kinase 17A (Homo sapiens, UniProt Q9UEE5); type: functional
Serine/threonine-protein kinase 17A, sequence (Q9UEE5 whole entry): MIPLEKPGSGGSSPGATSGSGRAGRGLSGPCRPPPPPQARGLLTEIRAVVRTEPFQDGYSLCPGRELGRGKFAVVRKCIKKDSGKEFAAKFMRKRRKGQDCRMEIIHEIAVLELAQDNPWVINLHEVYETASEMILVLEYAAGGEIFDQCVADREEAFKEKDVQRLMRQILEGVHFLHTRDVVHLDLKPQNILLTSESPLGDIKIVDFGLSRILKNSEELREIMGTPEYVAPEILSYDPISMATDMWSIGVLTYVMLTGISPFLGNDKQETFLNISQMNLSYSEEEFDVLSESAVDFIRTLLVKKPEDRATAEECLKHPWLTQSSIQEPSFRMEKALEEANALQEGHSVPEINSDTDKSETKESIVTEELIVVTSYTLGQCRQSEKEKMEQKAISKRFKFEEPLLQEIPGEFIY

[10] = target: MAP kinase-activated protein kinase 5 (Homo sapiens, UniProt Q8IW41); type: functional;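 also: measured as one member of a kinome panel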
MAP kinase-activated protein kinase 5, sequence (Q8IW41 whole entry): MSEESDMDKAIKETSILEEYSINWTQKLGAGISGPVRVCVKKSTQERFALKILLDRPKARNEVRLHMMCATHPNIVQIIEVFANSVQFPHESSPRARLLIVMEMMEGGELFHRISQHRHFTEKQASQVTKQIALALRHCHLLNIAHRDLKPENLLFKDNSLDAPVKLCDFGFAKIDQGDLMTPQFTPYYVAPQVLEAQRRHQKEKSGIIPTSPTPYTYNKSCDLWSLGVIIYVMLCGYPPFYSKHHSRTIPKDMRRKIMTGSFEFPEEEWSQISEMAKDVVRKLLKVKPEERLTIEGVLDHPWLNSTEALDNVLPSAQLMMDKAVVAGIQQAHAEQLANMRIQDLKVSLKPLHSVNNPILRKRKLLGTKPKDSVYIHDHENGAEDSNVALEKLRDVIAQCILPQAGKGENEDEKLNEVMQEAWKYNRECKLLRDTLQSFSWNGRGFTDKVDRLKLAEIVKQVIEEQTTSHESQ

[11] = target: Cell division cycle 7-related protein kinase (Homo sapiens, UniProt O00311); type: functional;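 also: value obtained from a kinome-wide kinase panel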
[12] = target: Proto-oncogene tyrosine-protein kinase ROS (Homo sapiens, UniProt P08922); type: functional;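 also: ROS1 tested as one member of a kinome-wide kinase panel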
Proto-oncogene tyrosine-protein kinase ROS, sequence (P08922 whole entry): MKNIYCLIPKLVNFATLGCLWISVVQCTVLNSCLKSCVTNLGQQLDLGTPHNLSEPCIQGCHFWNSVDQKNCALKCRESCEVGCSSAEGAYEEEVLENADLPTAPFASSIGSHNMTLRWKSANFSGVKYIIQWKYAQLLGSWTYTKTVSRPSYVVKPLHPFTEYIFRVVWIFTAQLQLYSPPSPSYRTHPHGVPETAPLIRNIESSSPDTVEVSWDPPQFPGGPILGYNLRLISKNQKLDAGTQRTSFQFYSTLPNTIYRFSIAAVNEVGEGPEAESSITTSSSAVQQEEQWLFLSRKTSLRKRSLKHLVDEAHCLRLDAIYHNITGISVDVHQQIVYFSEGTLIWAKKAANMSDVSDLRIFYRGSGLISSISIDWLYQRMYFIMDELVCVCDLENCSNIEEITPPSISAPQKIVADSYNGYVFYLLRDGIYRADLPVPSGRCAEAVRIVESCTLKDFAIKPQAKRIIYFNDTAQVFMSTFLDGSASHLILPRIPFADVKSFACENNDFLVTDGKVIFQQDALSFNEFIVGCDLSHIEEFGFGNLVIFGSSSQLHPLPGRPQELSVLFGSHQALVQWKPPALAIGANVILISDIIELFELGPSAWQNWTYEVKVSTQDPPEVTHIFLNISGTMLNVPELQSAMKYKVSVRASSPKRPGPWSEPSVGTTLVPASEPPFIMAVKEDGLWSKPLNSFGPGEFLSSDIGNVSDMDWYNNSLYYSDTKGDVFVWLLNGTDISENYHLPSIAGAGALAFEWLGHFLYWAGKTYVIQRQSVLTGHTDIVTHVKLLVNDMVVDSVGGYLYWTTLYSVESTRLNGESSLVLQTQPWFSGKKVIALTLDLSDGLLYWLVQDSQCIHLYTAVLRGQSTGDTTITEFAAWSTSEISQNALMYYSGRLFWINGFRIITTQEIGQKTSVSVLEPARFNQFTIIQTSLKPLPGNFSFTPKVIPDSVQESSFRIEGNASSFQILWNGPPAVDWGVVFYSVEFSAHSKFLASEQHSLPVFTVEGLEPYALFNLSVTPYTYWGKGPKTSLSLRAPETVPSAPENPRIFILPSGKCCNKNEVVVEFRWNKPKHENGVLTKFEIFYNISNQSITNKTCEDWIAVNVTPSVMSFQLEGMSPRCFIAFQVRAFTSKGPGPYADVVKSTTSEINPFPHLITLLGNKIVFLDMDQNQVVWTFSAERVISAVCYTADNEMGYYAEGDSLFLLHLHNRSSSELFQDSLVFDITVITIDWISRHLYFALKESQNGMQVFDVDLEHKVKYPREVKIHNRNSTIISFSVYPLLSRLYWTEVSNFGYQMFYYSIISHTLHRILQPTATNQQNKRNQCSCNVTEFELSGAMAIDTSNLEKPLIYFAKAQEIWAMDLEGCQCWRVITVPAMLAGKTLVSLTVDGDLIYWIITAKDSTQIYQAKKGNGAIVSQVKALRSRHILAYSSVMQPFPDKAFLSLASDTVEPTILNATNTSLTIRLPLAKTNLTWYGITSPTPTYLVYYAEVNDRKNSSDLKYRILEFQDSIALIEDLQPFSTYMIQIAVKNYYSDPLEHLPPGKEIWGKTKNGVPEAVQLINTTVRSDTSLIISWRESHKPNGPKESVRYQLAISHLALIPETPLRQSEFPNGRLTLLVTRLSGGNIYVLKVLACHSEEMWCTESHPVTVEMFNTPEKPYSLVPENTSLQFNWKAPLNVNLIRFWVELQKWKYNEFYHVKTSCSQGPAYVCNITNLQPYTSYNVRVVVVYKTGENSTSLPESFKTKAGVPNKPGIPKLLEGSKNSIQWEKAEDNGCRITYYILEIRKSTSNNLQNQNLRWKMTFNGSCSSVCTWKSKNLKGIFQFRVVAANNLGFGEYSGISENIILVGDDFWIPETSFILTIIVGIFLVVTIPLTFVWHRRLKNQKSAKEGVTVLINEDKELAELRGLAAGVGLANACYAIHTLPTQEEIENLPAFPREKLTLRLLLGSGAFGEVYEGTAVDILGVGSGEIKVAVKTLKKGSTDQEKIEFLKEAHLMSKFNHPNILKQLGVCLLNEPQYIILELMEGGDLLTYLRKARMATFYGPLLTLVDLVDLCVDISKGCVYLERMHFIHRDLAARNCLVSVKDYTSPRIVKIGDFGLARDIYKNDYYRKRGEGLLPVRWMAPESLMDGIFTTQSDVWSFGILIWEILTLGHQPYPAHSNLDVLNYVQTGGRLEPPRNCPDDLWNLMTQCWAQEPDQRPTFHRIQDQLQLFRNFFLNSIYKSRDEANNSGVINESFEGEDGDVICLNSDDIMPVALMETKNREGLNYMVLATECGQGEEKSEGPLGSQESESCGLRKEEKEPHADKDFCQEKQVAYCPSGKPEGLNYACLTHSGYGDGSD

Ephrin type-A receptor 2 = Ephrin type-A receptor 2 (Homo sapiens, UniProt P29317); type: functional;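 also: EPHA2 tested as one member of a kinome-wide kinase panel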
[13] = target: Mitogen-activated protein kinase 1 (Homo sapiens, UniProt P28482); type: functional
Misshapen-like kinase 1 = Misshapen-like kinase 1 (Homo sapiens, UniProt Q8N4C8); type: functional;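 also: kinome panel screen with MINK as the panel member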
Misshapen-like kinase 1, sequence (Q8N4C8 whole entry): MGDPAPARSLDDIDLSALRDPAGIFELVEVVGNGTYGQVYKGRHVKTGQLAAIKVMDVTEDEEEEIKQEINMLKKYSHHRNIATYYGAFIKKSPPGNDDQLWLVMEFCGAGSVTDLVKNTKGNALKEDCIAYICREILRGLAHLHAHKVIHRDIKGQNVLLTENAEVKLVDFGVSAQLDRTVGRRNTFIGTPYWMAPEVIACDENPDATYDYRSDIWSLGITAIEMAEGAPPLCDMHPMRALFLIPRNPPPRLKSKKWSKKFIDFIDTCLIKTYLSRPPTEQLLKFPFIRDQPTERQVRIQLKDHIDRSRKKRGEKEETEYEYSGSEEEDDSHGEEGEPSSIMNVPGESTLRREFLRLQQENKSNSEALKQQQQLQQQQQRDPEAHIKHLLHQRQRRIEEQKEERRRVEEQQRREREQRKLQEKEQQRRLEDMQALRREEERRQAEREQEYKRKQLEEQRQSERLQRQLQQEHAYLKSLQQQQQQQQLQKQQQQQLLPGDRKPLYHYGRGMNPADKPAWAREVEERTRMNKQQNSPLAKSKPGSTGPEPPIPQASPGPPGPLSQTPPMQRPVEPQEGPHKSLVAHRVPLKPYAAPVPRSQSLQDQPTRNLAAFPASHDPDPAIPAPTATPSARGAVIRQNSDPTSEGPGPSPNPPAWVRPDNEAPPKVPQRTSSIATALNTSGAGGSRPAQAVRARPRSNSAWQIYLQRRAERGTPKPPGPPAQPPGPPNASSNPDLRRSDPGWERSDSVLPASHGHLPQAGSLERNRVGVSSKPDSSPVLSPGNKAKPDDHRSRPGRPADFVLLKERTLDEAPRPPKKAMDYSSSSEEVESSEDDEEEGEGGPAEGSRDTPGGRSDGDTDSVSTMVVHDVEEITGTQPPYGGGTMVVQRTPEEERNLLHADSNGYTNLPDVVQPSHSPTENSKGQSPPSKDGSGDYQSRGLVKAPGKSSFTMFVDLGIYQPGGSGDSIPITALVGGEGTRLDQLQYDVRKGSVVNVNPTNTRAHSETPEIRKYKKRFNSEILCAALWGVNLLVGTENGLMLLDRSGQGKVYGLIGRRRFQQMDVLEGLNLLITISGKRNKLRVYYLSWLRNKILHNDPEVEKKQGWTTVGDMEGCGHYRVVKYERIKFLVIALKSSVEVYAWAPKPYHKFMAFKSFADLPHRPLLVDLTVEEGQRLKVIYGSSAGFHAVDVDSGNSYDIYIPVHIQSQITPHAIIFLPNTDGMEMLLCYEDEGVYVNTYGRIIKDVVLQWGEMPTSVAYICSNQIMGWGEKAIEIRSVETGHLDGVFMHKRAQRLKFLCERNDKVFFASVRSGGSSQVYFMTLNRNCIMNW

Focal adhesion kinase 1 = Focal adhesion kinase 1 (Homo sapiens, UniProt Q05397); type: functional;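 also: measured as one member of a kinome panel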
[14] = target: Serine/threonine-protein kinase pim-2 (Homo sapiens, UniProt Q9P1W9); type: functional;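 also: value comes from a broad kinase panel profiling study in which PIM2 was one of the panel members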
[15] = target: Serine/threonine-protein kinase BRSK1 (Homo sapiens, UniProt Q8TDC3); type: functional;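 also: measured within a kinome-wide kinase panel, with the target listed as KIAA1811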
[16] = target: Serine/threonine-protein kinase 3 (Homo sapiens, UniProt Q13188); type: functional;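 also: measured as one member of a kinome-wide kinase panel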

IC50 [1]: > 100 µM (not active)
IC50 [3]: > 128 µM (inactive)
SMILES: COc1ccc(-n2c(NC(=O)c3ccco3)c(C#N)c3nc4ccccc4nc32)cc1
IC50 [2]: 7.57 µM (active)

Ki [4]: > 3.16 µM (inactive)
Ki (LIM domain kinase 1): > 3.16 µM (inactive)
Ki [5]: > 2 µM (inactive)
Ki [6]: > 1.26 µM (inactive)
SMILES: [2H]C([2H])([2H])Oc1cccc(C(C)NC(=O)c2sc(-c3ccncc3)nc2C)c1 (stereo not given)

Ki [7]: > 7.94 µM (inactive)
Ki [8]: 0.00398 µM (active)
Ki [9]: 0.398 µM (active)
Ki [10]: > 1.58 µM (inactive)
Ki [11]: 0.0126 µM (active)
Ki [12]: 0.631 µM (active)
Ki (Ephrin type-A receptor 2): > 3.16 µM (inactive)
Ki [13]: 0.0398 µM (active)
Ki (Misshapen-like kinase 1): 0.02 µM (active)
Ki (Focal adhesion kinase 1): > 1.58 µM (inactive)
Ki [14]: 0.0126 µM (active)
Ki [15]: 3.16 µM (active)
Ki [16]: 0.0631 µM (active)
SMILES: Cc1n[nH]c2ccc(-c3cncc(OCC(N)Cc4ccc(Cl)c(Cl)c4)c3)cc12 (stereo not given)
